Experimental data reported in US20150274664A1 (MERCK SHARP & DOHME CORP., priority 2012, published 2015).

Biological target: T1, human GPR119 (Homo sapiens, UniProt Q8TDV5)
T1 construct: expressed in transfected cells; host or cells: HEK293
T1 sequence (Q8TDV5 1-335): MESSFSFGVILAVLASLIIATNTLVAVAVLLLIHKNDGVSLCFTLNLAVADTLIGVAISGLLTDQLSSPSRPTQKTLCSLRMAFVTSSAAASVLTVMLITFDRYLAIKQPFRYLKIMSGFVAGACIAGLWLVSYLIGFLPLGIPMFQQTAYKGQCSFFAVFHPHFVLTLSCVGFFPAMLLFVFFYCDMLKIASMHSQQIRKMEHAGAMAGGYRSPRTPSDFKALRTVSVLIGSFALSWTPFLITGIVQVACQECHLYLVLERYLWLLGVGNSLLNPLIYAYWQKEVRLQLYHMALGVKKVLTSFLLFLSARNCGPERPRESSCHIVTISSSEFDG
Assay: Measurement of GPR119 signaling using LANCE 384-well cAMP kit (LCMP assay)
Assay type: cell-based
Settings: HEK293 cells stably transfected with human GPR119
Procedure: Measurement of GPR119 Signaling Using LANCE 384-Well cAMP Kit (LCMP Assay)
Human embryonic kidney (HEK) 293 cell lines stably transfected with human GPR119 were maintained in DMEM media containing FBS, penicillin-streptomycin, HEPES, and hygromycin. For the cAMP assay, the transfected cells were harvested using a non-enzymatic cell dissociation solution (GIBCO 2672), pelleted and resuspended in stimulation buffer (DMEM, 25 mM Hepes, 0.1% BSA, pH 7.4 in the presence of 100 μM phosphodiesterase inhibitors). The adenylate cyclase assay was constructed following the LANCE™ cAMP Kit (Perkin Elmer, AD0264) instructions. Briefly, cells with Alexa Fluor® 647-anti cAMP antibody were incubated with 10 point series diluted test article in stimulation buffer with a final concentration of 2.5% DMSO for 45 minutes. The reaction was stopped by incubating with the supplied detection buffer containing the europium chelate of the Eu-SA/Biotin-cAMP tracer for 3 hours. The assay was performed in duplicate in a 384 well plate for duplicate plates. Fluorescence at 665 nm was measured using a PHERAstar instrument. Basal activity was determined using a DMSO control and maximum response was defined as cAMP stimulation produced by an internal agonist control. Standard cAMP concentrations were assayed concurrently for conversion of fluorescence signal to cAMP level. The data was analyzed using 4-parameter curve fit in Microsoft Excel.

Row | SMILES | EC50
1 | CCc1cnc(N2CCC([C@@H]3C[C@H]3CCOc3ccc(-n4cnnn4)cc3F)CC2)nc1 [Example 40, 5-ethyl-2-(4-((1S,2S)-2-(2-(2-fluoro-4-(1H-tetrazol-1-yl)phenoxy)ethyl)cyclopropyl)piperidin-1-yl)pyrimidine] | 5 nM
2 | Fc1cc(-n2cnnn2)ccc1OCC[C@@H]1C[C@H]1C1CCN(c2ncc(Cl)cn2)CC1 [Example 41, 5-chloro-2-(4-((1S,2S)-2-(2-(2-fluoro-4-(1H-tetrazol-1-yl)phenoxy)ethyl)cyclopropyl)piperidin-1-yl)pyrimidine] | 5.6 nM
3 | O=C(Cc1ccc(OCC[C@@H]2C[C@H]2C2CCN(c3ncc(Cl)cn3)CC2)cc1F)N1CCC1 [Example 42, 1-(azetidin-1-yl)-2-(4-(2-((1S,2S)-2-(1-(5-chloropyrimidin-2-yl)piperidin-4-yl)cyclopropyl)ethoxy)-2-fluorophenyl)ethanone] | 1.8 nM
4 | CCc1cnc(N2CCC([C@H]3C[C@@H]3CCOc3ccc(N4CCNC4=O)c(F)c3)CC2)nc1 [Example 43, 1-(4-(2-((1R,2R)-2-(1-(5-ethylpyrimidin-2-yl)piperidin-4-yl)cyclopropyl)ethoxy)-2-fluorophenyl)imidazolidin-2-one] | 9.6 nM
5 | CCc1cnc(N2CCC([C@H]3C[C@@H]3CCOc3ccc(CC(=O)N4CCC4)cc3F)CC2)nc1 [Example 44, 1-(azetidin-1-yl)-2-(4-(2-((1R,2R)-2-(1-(5-ethylpyrimidin-2-yl)piperidin-4-yl)cyclopropyl)ethoxy)-3-fluorophenyl)ethanone] | 2.9 nM
6 | CCc1cnc(N2CCC([C@H]3C[C@@H]3CCOc3ccc(CC(=O)N4CCC4)c(F)c3)CC2)nc1 [Example 45, 1-(azetidin-1-yl)-2-(4-(2-((1R,2R)-2-(1-(5-ethylpyrimidin-2-yl)piperidin-4-yl)cyclopropyl)ethoxy)-2-fluorophenyl)ethanone] | 0.8 nM
7 | CCc1cnc(N2CCC([C@@H]3C[C@H]3CCOc3ccc(CC(=O)N(C)C)c(F)c3)CC2)nc1 [Example 46, 2-(4-(2-((1S,2S)-2-(1-(5-ethylpyrimidin-2-yl)piperidin-4-yl)cyclopropyl)ethoxy)-2-fluorophenyl)-N,N-dimethylacetamide] | 4.4 nM
8 | CCc1cnc(N2CCC([C@H]3C[C@@H]3CCOc3ccc(CC(=O)N(C)C)c(F)c3)CC2)nc1 [Example 47, 2-(4-(2-((1R,2R)-2-(1-(5-ethylpyrimidin-2-yl)piperidin-4-yl)cyclopropyl)ethoxy)-2-fluorophenyl)-N,N-dimethylacetamide] | 2.9 nM
9 | COCc1cnc(N2CCC([C@@H]3C[C@H]3CCOc3ccc(CC(=O)N4CCC4)c(F)c3)CC2)nc1 [Example 48, 1-(azetidin-1-yl)-2-(2-fluoro-4-(2-((1S,2S)-2-(1-(5-(methoxymethyl)pyrimidin-2-yl)piperidin-4-yl)cyclopropyl)ethoxy)phenyl)ethanone] | 8.5 nM
10 | CCc1cnc(N2CCC([C@@H]3C[C@H]3CCOc3cc(F)c(CC(=O)N(C)C)c(F)c3)CC2)nc1 [Example 49, 2-(4-(2-((1S,2S)-2-(1-(5-ethylpyrimidin-2-yl)piperidin-4-yl)cyclopropyl)ethoxy)-2,6-difluorophenyl)-N,N-dimethylacetamide] | 0.7 nM
11 | CCc1cnc(N2CCC([C@@H]3C[C@H]3CCOc3cc(F)c(CC(=O)N4CCC4)c(F)c3)CC2)nc1 [Example 50, 1-(azetidin-1-yl)-2-(4-(2-((1S,2S)-2-(1-(5-ethylpyrimidin-2-yl)piperidin-4-yl)cyclopropyl)ethoxy)-2,6-difluorophenyl)ethanone] | 0.35 nM
12 | COCc1cnc(N2CCC([C@H]3C[C@@H]3CCOc3ccc(CC(=O)N4CCC4)c(F)c3)CC2)nc1 [Example 51, 1-(azetidin-1-yl)-2-(2-fluoro-4-(2-((1R,2R)-2-(1-(5-(methoxymethyl)pyrimidin-2-yl)piperidin-4-yl)cyclopropyl)ethoxy)phenyl)ethanone] | 3.4 nM
